From US9394275B2, “Diamide compounds having muscarinic receptor antagonist and BETA2 adrenergic receptor agonist activity” (THERAVANCE RESPIRATORY COMPANY, LLC, priority 2009, dated 2016)
Structures can show the parent of a compound that is named as a salt. Where two headings read alike, the source gives them in different places.

Test system: MCh-induced bronchoconstriction in a rat
Assay: Einthoven assay: bronchoprotection against methacholine (MCh)-induced bronchoconstriction
Type: in vivo
Details: for inhibition in vivo at 0.1 mg: inhaled or nasal, read-out: Broncho. at 24 h
Experimental: This assay measures the ability of a test compound to provide bronchoprotection against methacholine (MCh)-induced bronchoconstriction in a rat. Male Sprague-Dawley rats (Harlan, Indianapolis, Ind.), weighing between 200 g and 350 g, were used for all studies. Test compound or vehicle (sterile deionized water) were dosed by inhalation (IH) over a 10 min period in a pie shaped inhalation chamber (R+S Molds, San Carlos, Calif.) using 5 mL of dosing solution. […] Rats were dosed with 100 μg of test compound unless otherwise indicated. At predetermined time points, rats were anesthetized with an intraperitoneal (IP) injection of 120 mg/kg inactin (thiobutabarbital). A supplemental dose (40 mg/kg, IP) was administered if the animal responded to physical stimuli (e.g. toe pinch). The surgical site was shaved and a 1-2 cm midline incision of the ventral aspect of the neck was made. The jugular vein was isolated and cannulated with a saline-filled polyethylene catheter (PE-50) to allow IV infusion of MCh. Trachea was dissected free and cannulated with a 14G needle (#NE-014, Small Parts, Miami Lakes, Fla.). After placement of the tracheal cannula, each rat was ventilated using a respirator (Model 683, Harvard Apparatus, Inc., MA) set at a stroke volume of 1 mL/100 g body weight (but not exceeding 2.5 mL volume) and a rate of 90 strokes per minute. A T-connector was placed along the respirator expiratory tubing to allow for measurement of changes in ventilation pressure (VP) using a Biopac transducer that was connected to a Biopac […]) pre-amplifier. Body temperature was maintained at 37° C. using a heating pad. Changes in VP were recorded using the Acknowledge Data Collection Software (Santa Barbara, Calif.). Baseline values were collected for at least 2.5 min. Rats were then challenged with non-cumulative intravenous (IV) infusions of 40 and 80 μg/kg MCh. MCh was infused intravenously for 2.5 minutes from a syringe pump (sp210iw, World Precision Instruments, Inc., Sarasota, Fla.) at a rate of 2 mL/kg/min, with a 2 minute interval between the two doses of MCh. Changes in ventilation pressure (cm H2O) in treated animals are expressed as % inhibition of MCh response relative to control animals. Other bronchoconstrictors, such as histamine and acetylcholine, can be used in place of MCh in this assay. Additionally, guinea pigs can be used instead of rats. […] Inhibition greater than or equal to 30 percent at 24 h is indicative of a long duration of action.

[1] = rat, 100 μg by inhalation, 24 h after administration

Row | SMILES | Broncho. at 24 h [1] | further results
1 | Cc1cc(CNC[C@H](O)c2ccc(O)c3[nH]c(=O)ccc23)ccc1NC(=O)CCCN(C)C(=O)CCN1CCC(OC(=O)Nc2ccccc2-c2ccccc2)CC1 [Compound I-2] | No | 
2 | C[C@H](Cc1cccc(CC(=O)NCCCN(C)C(=O)CCN2CCC(OC(=O)Nc3ccccc3-c3ccccc3)CC2)c1)NC[C@H](O)c1ccc(O)c2[nH]c(=O)ccc12 [Compound I-12] | No | 
3 | CN(CCCCC(=O)Nc1ccc(CNC[C@H](O)c2ccc(O)c3[nH]c(=O)ccc23)cc1)C(=O)CCN1CCC(OC(=O)Nc2ccccc2-c2ccccc2)CC1 [Compound I-14, Biphenyl-2-ylcarbamic Acid 1-(2-{[4-(4-{[(R)-2-hydroxy-2-(8-hydroxy-2-oxo-1,2-dihydroquinolin-5-yl)ethylamino]methyl}phenylcarbamoyl)-butyl]methylcarbamoyl}ethyl)piperidin-4-yl Ester Ditrifluoroacetic Acid Salt] | Yes (Bronchoprotective effect present at 24 h, e.g., ≧30% inhibition of the MCh response at 24 h in the rat Einthoven assay (100 μg)) | 
4 | Cc1cc(NC(=O)CCCCN(C)C(=O)CCN2CCC(OC(=O)Nc3ccccc3-c3ccccc3)CC2)c(C)cc1CNC[C@H](O)c1ccc(O)c2[nH]c(=O)ccc12 [Compound I-18, Biphenyl-2-ylcarbamic Acid 1-(2-{[4-(4-{[(R)-2-Hydroxy-2-(8-hydroxy-2-oxo-1,2-dihydroquinolin-5-yl)ethylamino]methyl}-2,5-dimethylphenylcarbamoyl)butyl]methylcarbamoyl}ethyl)piperidin-4-yl Ester Ditrifluoroacetic Acid Salt] | Yes (Bronchoprotective effect present at 24 h, e.g., ≧30% inhibition of the MCh response at 24 h in the rat Einthoven assay (100 μg)) | 
5 | Cc1cc(CNC[C@H](O)c2ccc(O)c3[nH]c(=O)ccc23)ccc1NC(=O)c1cccc(N(C)C(=O)CCN2CCC(OC(=O)Nc3ccccc3-c3ccccc3)CC2)c1 [Compound I-27] | No | 
6 | Cc1cc(CNC[C@H](O)c2ccc(O)c3[nH]c(=O)ccc23)ccc1NC(=O)c1ccc(C)c(N(C)C(=O)CCN2CCC(OC(=O)Nc3ccccc3-c3ccccc3)CC2)c1 [Compound I-28] | No | 
7 | COc1cc(CNC[C@H](O)c2ccc(O)c3[nH]c(=O)ccc23)ccc1NC(=O)c1cccc(N(C)C(=O)CCN2CCC(OC(=O)Nc3ccccc3-c3ccccc3)CC2)c1 [Compound I-29] | No | 
8 | Cc1cc(NC(=O)c2cccc(N(C)C(=O)CCN3CCC(OC(=O)Nc4ccccc4-c4ccccc4)CC3)c2)c(C)cc1CNC[C@H](O)c1ccc(O)c2[nH]c(=O)ccc12 [Compound I-30] | No | 
9 | CN(C(=O)CCN1CCC(OC(=O)Nc2ccccc2-c2ccccc2)CC1)c1cccc(C(=O)Nc2cccc(CCNC[C@H](O)c3ccc(O)c4[nH]c(=O)ccc34)c2)c1 [Compound I-32] | No | 
10 | Cc1ccc(C(=O)Nc2cccc(CCNC[C@H](O)c3ccc(O)c4[nH]c(=O)ccc34)c2)cc1N(C)C(=O)CCN1CCC(OC(=O)Nc2ccccc2-c2ccccc2)CC1 [Compound I-33] | No | 
11 | Cc1ccc(C(=O)Nc2ccc(CCNC[C@H](O)c3ccc(O)c4[nH]c(=O)ccc34)cc2)cc1N(C)C(=O)CCN1CCC(OC(=O)Nc2ccccc2-c2ccccc2)CC1 [Compound I-35] |  | inhibition in vivo at 0.1 mg [1]: > 30%
12 | Cc1ccc(C(=O)Nc2cccc(CC(C)NC[C@H](O)c3ccc(O)c4[nH]c(=O)ccc34)c2)cc1N(C)C(=O)CCN1CCC(OC(=O)Nc2ccccc2-c2ccccc2)CC1 (stereo partly drawn) [Compound I-37] | No | 
13 | C[C@H](Cc1cccc(NC(=O)c2cccc(N(C)C(=O)CCN3CCC(OC(=O)Nc4ccccc4-c4ccccc4)CC3)c2)c1)NC[C@H](O)c1ccc(O)c2[nH]c(=O)ccc12 [Compound I-38] | No | 
14 | C[C@@H](Cc1cccc(NC(=O)c2cccc(N(C)C(=O)CCN3CCC(OC(=O)Nc4ccccc4-c4ccccc4)CC3)c2)c1)NC[C@H](O)c1ccc(O)c2[nH]c(=O)ccc12 [Compound I-39] | No | 
15 | C[C@H](Cc1ccc(NC(=O)c2cccc(N(C)C(=O)CCN3CCC(OC(=O)Nc4ccccc4-c4ccccc4)CC3)c2)cc1)NC[C@H](O)c1ccc(O)c2[nH]c(=O)ccc12 [Compound I-42] | No | 
16 | CC(Cc1cccc(CNC(=O)c2cccc(N(C)C(=O)CCN3CCC(OC(=O)Nc4ccccc4-c4ccccc4)CC3)c2)c1)NC[C@H](O)c1ccc(O)c2[nH]c(=O)ccc12 (stereo partly drawn) [Compound I-44] | No | 
17 | Cc1ccc(C(=O)NCc2cccc(CC(C)NC[C@H](O)c3ccc(O)c4[nH]c(=O)ccc34)c2)cc1N(C)C(=O)CCN1CCC(OC(=O)Nc2ccccc2-c2ccccc2)CC1 (stereo partly drawn) [Compound I-45] | No | 
18 | CC(Cc1cccc(CC(=O)Nc2cccc(N(C)C(=O)CCN3CCC(OC(=O)Nc4ccccc4-c4ccccc4)CC3)c2)c1)NC[C@H](O)c1ccc(O)c2[nH]c(=O)ccc12 (stereo partly drawn) [Compound I-52] | No | 
19 | C[C@@H](Cc1cccc(CCNC(=O)c2ccc(N(C)C(=O)CCN3CCC(OC(=O)Nc4ccccc4-c4ccccc4)CC3)cc2)c1)NC[C@H](O)c1ccc(O)c2[nH]c(=O)ccc12 [Compound I-56] | No | 
20 | CN(C(=O)CCN1CCC(OC(=O)Nc2ccccc2-c2ccccc2)CC1)c1ccc(CC(=O)NCc2ccc(CCNC[C@H](O)c3ccc(O)c4[nH]c(=O)ccc34)cc2)cc1 [Compound I-64] | No | 
21 | CC(Cc1ccc(CNC(=O)Cc2ccc(N(C)C(=O)CCN3CCC(OC(=O)Nc4ccccc4-c4ccccc4)CC3)cc2)cc1)NC[C@H](O)c1ccc(O)c2[nH]c(=O)ccc12 (stereo partly drawn) [Compound I-66] | No | 
22 | C[C@@H](Cc1cccc(CC(=O)NCc2ccc(N(C)C(=O)CCN3CCC(OC(=O)Nc4ccccc4-c4ccccc4)CC3)cc2)c1)NC[C@H](O)c1ccc(O)c2[nH]c(=O)ccc12 [Compound I-79] | No | 
23 | CC(Cc1ccc(CC(=O)NCc2ccc(N(C)C(=O)CCN3CCC(OC(=O)Nc4ccccc4-c4ccccc4)CC3)cc2)cc1)NC[C@H](O)c1ccc(O)c2[nH]c(=O)ccc12 (stereo partly drawn) [Compound I-80] | No | 
24 | C[C@H](Cc1cccc(CCNC(=O)Cc2ccc(N(C)C(=O)CCN3CCC(OC(=O)Nc4ccccc4-c4ccccc4)CC3)cc2)c1)NC[C@H](O)c1ccc(O)c2[nH]c(=O)ccc12 [Compound I-86, Biphenyl-2-ylcarbamic Acid 1-{2-[(4-{[2-(3-{(R)-2-[(R)-2-Hydroxy-2-(8-hydroxy-2-oxo-1,2-dihydroquinolin-5-yl)ethylamino]propyl}phenyl)-ethylcarbamoyl]methyl}phenyl)methylcarbamoyl]ethyl}piperidin-4-yl Ester Ditrifluoroacetic Acid Salt] |  | inhibition in vivo at 0.1 mg (Rattus norvegicus, 24 h): > 30%
